Experimental data taken from US20170291890A1 (Epizyme, Inc., priority 2014, published 2017).

Each compound was assayed against T1, KDM5A (Homo sapiens, UniProt P29375) (assay: KDM5A Assay (SAMDI mass spectrometry demethylase assay)). Settings: C-terminal FLAG-tagged KDM5A 1-1090; class symbols; read-out: 5A IC50.
T1 construct: C-terminal FLAG-tagged KDM5A^1-1090 was purchased from BPS Biosciences; FLAG (C); purchased BPS Biosciences
T1 sequence (P29375 1-1090): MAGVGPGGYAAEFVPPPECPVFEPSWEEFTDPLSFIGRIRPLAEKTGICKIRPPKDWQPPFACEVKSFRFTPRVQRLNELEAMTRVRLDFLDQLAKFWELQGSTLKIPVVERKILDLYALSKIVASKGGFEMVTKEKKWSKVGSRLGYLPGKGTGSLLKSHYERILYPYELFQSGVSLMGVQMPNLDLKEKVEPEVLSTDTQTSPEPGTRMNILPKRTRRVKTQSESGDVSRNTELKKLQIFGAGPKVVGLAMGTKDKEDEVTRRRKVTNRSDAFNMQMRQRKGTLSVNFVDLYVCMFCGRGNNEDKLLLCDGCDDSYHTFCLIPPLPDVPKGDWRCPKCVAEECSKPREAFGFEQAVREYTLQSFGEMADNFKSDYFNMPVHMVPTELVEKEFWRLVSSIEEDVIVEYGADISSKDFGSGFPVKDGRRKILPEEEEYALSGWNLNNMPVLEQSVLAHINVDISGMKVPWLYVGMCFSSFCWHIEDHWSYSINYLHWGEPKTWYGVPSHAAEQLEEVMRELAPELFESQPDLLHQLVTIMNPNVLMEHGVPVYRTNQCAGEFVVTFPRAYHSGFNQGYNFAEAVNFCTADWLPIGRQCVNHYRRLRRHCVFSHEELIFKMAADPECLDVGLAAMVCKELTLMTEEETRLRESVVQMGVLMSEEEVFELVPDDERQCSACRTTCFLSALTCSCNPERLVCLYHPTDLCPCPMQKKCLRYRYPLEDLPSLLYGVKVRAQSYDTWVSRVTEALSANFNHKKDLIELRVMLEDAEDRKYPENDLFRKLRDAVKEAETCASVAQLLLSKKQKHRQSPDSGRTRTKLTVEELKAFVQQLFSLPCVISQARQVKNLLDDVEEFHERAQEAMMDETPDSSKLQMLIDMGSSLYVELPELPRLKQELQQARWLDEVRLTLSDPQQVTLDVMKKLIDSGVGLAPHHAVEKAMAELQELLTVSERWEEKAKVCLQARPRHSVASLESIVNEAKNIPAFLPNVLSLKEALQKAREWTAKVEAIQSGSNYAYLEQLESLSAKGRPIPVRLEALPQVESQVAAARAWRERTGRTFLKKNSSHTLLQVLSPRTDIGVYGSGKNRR
Type: biochemical
How it was run: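 FLAG-tagged KDM5A 1-1090 (20 nM) preincubated 30 min with compound in pH 8.0 HEPES buffer with ascorbate, Fe(II), TCEP, then reacted 150 min at 25 °C with H3K4me3 peptide (250 nM) and 2-oxoglutarate (15 μM). Formic acid-quenched; SAMDI-MS substrate/product AUC conversion; IC50 from dose-response.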

IC50 | SMILES
100 to 1000 nM | O=C(O)c1ccncc1Nc1nn(CCN2CCC(F)(F)CC2)cc1C1CCCCC1 [Compound 57, 3-((4-cyclohexyl-1-(2-(4,4-difluoropiperidin-1-yl)ethyl)-1H-pyrazol-3-yl)amino)isonicotinic acid]
1 to 100 nM | O=C(O)c1ccncc1Nc1nn(CCC(F)(F)F)cc1-c1ccccc1 [Compound 73, 3-((4-phenyl-1-(3,3,3-trifluoropropyl)-1H-pyrazol-3-yl)amino) isonicotinic acid]
1000 to 10000 nM | CN(C)CCCn1ncc(-c2ccccc2)c1Nc1cnccc1C(=O)O [Compound 52, 3-((1-(3-(dimethylamino)propyl)-4-phenyl-1H-pyrazol-5-yl)amino) isonicotinic acid]
1000 to 10000 nM | Cn1cc(-c2ccccc2)c(Nc2cnccc2C(=O)O)n1 [Compound 3]
100 to 1000 nM | Cc1nn(C2CCCNCC2)cc1Nc1cnccc1C(=O)O (single isomer, unassigned) [Compound 114]
100 to 1000 nM | Cc1nn(C2CCN(CC(F)(F)F)CC2)cc1Nc1cnccc1C(=O)O [Compound 99, 3-(3-methyl-1-(1-(2,2,2-trifluoroethyl)piperidin-4-yl)-1H-pyrazol-4-ylamino)isonicotinic acid]
1000 to 10000 nM | O=C(O)c1ccncc1Nc1cc(-c2ccccc2)nn1[C@H]1CC[C@@H](O)CC1 [Compound 40, 3-((1-((cis)-4-Hydroxycyclohexyl)-3-phenyl-1H-pyrazol-5-yl)amino)isonicotinic acid]
100 to 1000 nM | Cc1nn(C2CCN(C(C)C)CC2)cc1Nc1cnccc1C(=O)O [Compound 102, 3-((1-(1-isopropylpiperidin-4-yl)-3-methyl-1H-pyrazol-4-yl)amino)isonicotinic acid]
1000 to 10000 nM | O=C(O)c1ccncc1Nc1cc(-c2ccccc2)nn1C1CCOCC1 [Compound 23, 3-((3-Phenyl-1-(tetrahydro-2H-pyran-4-yl)-1H-pyrazol-5-yl)amino)isonicotinic acid]
1000 to 10000 nM | Cc1nn(-c2ccccc2C#N)cc1Nc1cnccc1C(=O)O [Compound 70, 3-((1-(2-cyanophenyl)-3-methyl-1H-pyrazol-4-yl)amino) isonicotinic acid]
1000 to 10000 nM | O=C(O)c1ccncc1Nc1c(-c2ccc(F)cc2)cnn1CCN1CCC(F)(F)CC1 [Compound 46, 3-((1-(2-(4,4-difluoropiperidin-1-yl)ethyl)-4-(4-fluorophenyl)-1H-pyrazol-5-yl)amino) isonicotinic acid]
1000 to 10000 nM | Cc1c(Nc2cnccc2C(=O)O)cnn1-c1ccccc1 [Compound 20, 3-((5-methyl-1-phenyl-1H-pyrazol-4-yl)amino)isonicotinic acid]
1 to 100 nM | Cc1nn(-c2ccccc2)cc1Nc1cnccc1C(=O)O [Compound 19, 3-((3-Methyl-1-phenyl-1H-pyrazol-4-yl)amino)isonicotinic acid]
10000 to 100000 nM | Cn1ncc(-c2ccc(F)cc2)c1Nc1cnccc1C(=O)O [Compound 8, 3-((4-(4-fluorophenyl)-1-methyl-1H-pyrazol-5-yl)amino) isonicotinic acid]
1000 to 10000 nM | Cc1cc(Nc2cnccc2C(=O)O)n(C2CCOCC2)n1 [Compound 78, 3-((3-methyl-1-(tetrahydro-2H-pyran-4-yl)-1H-pyrazol-5-yl)amino) isonicotinic acid]
